Results: patent US20210290676A1, “IMPROVING THE EFFICACY AND SAFETY OF ADOPTIVE CELLULAR THERAPIES” (University of Southern California, priority 2018, published 2021)

Tests used:
Assay type in all cases: cell-based, human
[1] = system: CD8+CD45RA+CCR7+CD62L+ T cells; experiment: Flow cytometry for CD8, CD45RA, CCR7 and CD62L on inhibitor-treated T cells; conditions: for % of CD62L+CCR7+ double positive cells out of CD45RA+ cells in CD8+ T cell population: 13 days of treatment; for GATE P4 CD8(PerCP)+, CD45RA(FITC)+, CCR7 (PE)+, CD62L(APC): cells cultured for 14 days
Procedure: (§1) DAY 0: Blood was obtained from unidentified donor. After RBC lysis, PBMC were collected using Ficoll-Hypaque separation. […] T cells were cultured in three different conditions: • 1. XVIVO 15 medium (Lonza) with IL2 50 IU/ml, CD3 antibody (30 ng/ml) and CD28 antibody (30 ng/ml). • 2. XVIVO 15 medium (Lonza) with CD3 antibody (30 ng/ml) and CD28 antibody (30 ng/ml). • 3. XVIVO 15 medium (Lonza) with IL2 50 IU/ml DAY 1: Cells were plated in a 6-well plate at a density of 1 million cells in 2 ml/of media (as described above) and treated with different inhibitors
(§2) A second aliquot of the cells cultured for 13 days with all the treatments listed above (1-21) was washed with PBS+1% FBS, stained with CD8-PerCP, CD45RA-FITC, CCR7-PE and CD62L-APC ([…] for each of 4 antibodies) at 4° C. for 1 h, washed twice with […] and analyzed on flow cytometer to check if these drugs are enriching T stem cells showing surface expression of CD8+CD45RA+CCR7+CD62L+.
(§3) Day 0: Blood was obtained from unidentified donor. After RBC lysis, PBMC were collected using Ficoll-Hypaque separation. 200 million T cells were isolated from PBMCs using CD3 microbeads. T cells were cultured overnight in XVIVO 15 medium (Lonza) with IL2 (50 IU/ml), 30 ng/ml of CD3 and CD28 antibodies
(§4) Day 1: Cells were plated in 24-well plates at a density of 0.3 million cells/ml in each well and treated with different drugs.
(§5) On day 7, culture medium was replaced with fresh medium with fresh drugs.
(§6) On day 13, culture medium was replaced with fresh medium and fresh drugs. Half of the cells were transferred to 6-well plates.
(§7) A second aliquot of the cells cultured for 14 days with all the treatments listed above was washed with PBS+1% FBS, stained with CD8-PerCP, CD45RA-FITC, CCR7-PE and CD62L-APC (5 ul/100 ul/sample for each of 4 antibodies) at 4° C. for 1 h, washed twice with PBS+1% FBS and analyzed on flow cytometer to check if these drugs are enriching for T cells showing surface expression of CD8+CD45RA+CCR7+CD62L+.

[2] = system: Pgp+ (DiOC2(3)-dye effluxing) T cells; experiment: DiOC2(3) dye efflux flow cytometry of inhibitor-treated T cells; conditions: for p2: pgp+ from Live cells: treatment for 13 days, IL2 + CD3 and CD28 antibodies
Procedure: (§8) The use of P-glycoprotein (Pgp)-mediated efflux of DiOC2(3) to isolate stem like T cells for adoptive cellular therapy has been described in application no. […] In the following examples, DiOC2(3) staining was used to study the effect of different inhibitors on generation of stem like T cells.
as §1
(§9) The cell growth medium was changed in 6-well plates and fresh drugs were added at same concentration for one more week.
(§10) […] (DAY 11): Culture medium was changed and fresh drugs were added in 6-well plates.
(§11) Subsequently, cells were washed with RPMI medium and dye was effluxed at 37° C. for 90 min. Cells were washed with […], stained with CD62L-APC (5 μl/100 μl/sample) at 4° C. for 1 h, washed twice with PBS+1% FBS and analyzed on flow cytometer to check if these drugs treatment leads to increase in Pgp+/CD62L positive population.
as §3, §4, §5, §6
(§12) Day 14: An aliquot of cells with all the treatments listed above (for 13 days) was used to stain the cells with DiOC2(3) (60 ng/ml in RPMI medium) at 4° C. for 40 min, washed with RPMI medium, DiOC2(3) dye was effluxed at 37° C. for 90 min, washed with PBS+1% FBS, stained with CD62L-APC antibody. CD62L is a marker for resting T cells. (5 μl/100 μl/sample) at 4° C. for 1 h, washed twice with PBS+1% FBS and analyzed on flow cytometer to check if these drugs are affecting the dye-effluxing or Pgp+ (i.e., DiOC2(3)-dull) T-cell population.

[3] = system: CD45RA+CCR7+CD62L+ T cells; experiment: Flow cytometry for CD45RA, CCR7 and CD62L on inhibitor-treated T cells (all T cells); conditions: for % of CD62L+CCR7+ double positive cells out of CD45RA+ cells in live T cell population: 13 days treatment; for GATE P6 CD45RA(FITC)+, CCR7 (PE)+, CD62L(APC): cells cultured for 14 days
Procedure: as §1, §2, §3, §4, §5, §6, §7

[4] = system: Pgp+ (DiOC2(3)-dye effluxing cells) and CD62L+ T cells; experiment: DiOC2(3) dye efflux plus CD62L-APC staining, flow cytometry of inhibitor-treated T cells; conditions: for p5: double +ve pgp+ and CD62L-APC+ from Live cells: treatment for 13 days, IL2 + CD3 and CD28 antibodies
Procedure: as §8, §1, §9, §10, §11, §3, §4, §5, §6, §12

[5] = CD3-CD28-IL2 culture, inhibitor 100 nM
[6] = CD3-CD28-IL2 culture, inhibitor 500 nM
[7] = CD3-CD28-IL2 culture, inhibitor 1 μM
[8] = CD3-CD28 culture, inhibitor 100 nM
[9] = CD3-CD28 culture, inhibitor 500 nM
[10] = CD3-CD28 culture, inhibitor 1 μM
[11] = CD3-IL2 culture, inhibitor 100 nM
[12] = CD3-IL2 culture, inhibitor 500 nM
[13] = CD3-IL2 culture, inhibitor 1 μM
[14] = culture with CD3 antibody, CD28 antibody and IL2, 6 days of treatment, 500 nM

Q: Which results are given for `CCCc1cc(C)[nH]c(=O)c1CNC(=O)c1cc(-c2ccnc(N3CCN(C)CC3)c2)cc2c1cnn2C(C)C` [GSK343]?
A: % of CD62L+CCR7+ double positive cells out of CD45RA+ cells in CD8+ T cell population [1, 5]: 82.96%; % of CD62L+CCR7+ double positive cells out of CD45RA+ cells in CD8+ T cell population [1, 6]: 82.42%; % of CD62L+CCR7+ double positive cells out of CD45RA+ cells in CD8+ T cell population [1, 7]: 85.00%; % of CD62L+CCR7+ double positive cells out of CD45RA+ cells in CD8+ T cell population [1, 8]: 85.28%; % of CD62L+CCR7+ double positive cells out of CD45RA+ cells in CD8+ T cell population [1, 9]: 80.34%; % of CD62L+CCR7+ double positive cells out of CD45RA+ cells in CD8+ T cell population [1, 10]: 85.70%; % of CD62L+CCR7+ double positive cells out of CD45RA+ cells in CD8+ T cell population [1, 11]: 73.95%; % of CD62L+CCR7+ double positive cells out of CD45RA+ cells in CD8+ T cell population [1, 12]: 77.29%; % of CD62L+CCR7+ double positive cells out of CD45RA+ cells in CD8+ T cell population [1, 13]: 81.47%; % of Pgp+ cells out of live cells ([2]; CD3-CD28-IL2 culture, inhibitor 100 nM, 6 days of treatment): 23.29%; % of Pgp+ cells out of live cells ([2]; CD3-CD28-IL2 culture, inhibitor 100 nM, 13 days of treatment): 27.15%; % of Pgp+ cells out of live cells ([2]; CD3-CD28-IL2 culture, inhibitor 500 nM, 6 days of treatment): 30.62%; % of Pgp+ cells out of live cells ([2]; CD3-CD28-IL2 culture, inhibitor 500 nM, 13 days of treatment): 18.00%; % of Pgp+ cells out of live cells ([2]; CD3-CD28-IL2 culture, inhibitor 1 μM, 6 days of treatment): 28.03%; % of Pgp+ cells out of live cells ([2]; CD3-CD28-IL2 culture, inhibitor 1 μM, 13 days of treatment): 23.42%; % of Pgp+ cells out of live cells ([2]; CD3-CD28 culture, inhibitor 100 nM, 6 days of treatment): 48.43%; % of Pgp+ cells out of live cells ([2]; CD3-CD28 culture, inhibitor 100 nM, 13 days of treatment): 11.66%; % of Pgp+ cells out of live cells ([2]; CD3-CD28 culture, inhibitor 500 nM, 6 days of treatment): 47.09%; % of Pgp+ cells out of live cells ([2]; CD3-CD28 culture, inhibitor 500 nM, 13 days of treatment): 10.34%; % of Pgp+ cells out of live cells ([2]; CD3-CD28 culture, inhibitor 1 μM, 6 days of treatment): 46.26%; % of Pgp+ cells out of live cells ([2]; CD3-CD28 culture, inhibitor 1 μM, 13 days of treatment): 9.43%; % of Pgp+ cells out of live cells ([2]; CD3-IL2 culture, inhibitor 100 nM, 6 days of treatment): 25.49%; % of Pgp+ cells out of live cells ([2]; CD3-IL2 culture, inhibitor 100 nM, 13 days of treatment): 20.31%; % of Pgp+ cells out of live cells ([2]; CD3-IL2 culture, inhibitor 500 nM, 6 days of treatment): 25.21%; % of Pgp+ cells out of live cells ([2]; CD3-IL2 culture, inhibitor 500 nM, 13 days of treatment): 23.54%; % of Pgp+ cells out of live cells ([2]; CD3-IL2 culture, inhibitor 1 μM, 6 days of treatment): 28.31%; % of Pgp+ cells out of live cells ([2]; CD3-IL2 culture, inhibitor 1 μM, 13 days of treatment): 17.50%; percentage of Pgp+ cells [2, 14]: 30.62%; % of CD62L+CCR7+ double positive cells out of CD45RA+ cells in live T cell population [3, 5]: 66.40%; % of CD62L+CCR7+ double positive cells out of CD45RA+ cells in live T cell population [3, 6]: 64.47%; % of CD62L+CCR7+ double positive cells out of CD45RA+ cells in live T cell population [3, 7]: 67.37%; % of CD62L+CCR7+ double positive cells out of CD45RA+ cells in live T cell population [3, 8]: 75.26%; % of CD62L+CCR7+ double positive cells out of CD45RA+ cells in live T cell population [3, 9]: 67.97%; % of CD62L+CCR7+ double positive cells out of CD45RA+ cells in live T cell population [3, 10]: 76.18%; % of CD62L+CCR7+ double positive cells out of CD45RA+ cells in live T cell population [3, 11]: 58.51%; % of CD62L+CCR7+ double positive cells out of CD45RA+ cells in live T cell population [3, 12]: 61.18%; % of CD62L+CCR7+ double positive cells out of CD45RA+ cells in live T cell population [3, 13]: 61.06%; % of Pgp+ CD62L+cells out of live cells ([4]; CD3-CD28-IL2 culture, inhibitor 100 nM, 6 days treatment): 8.57%; % of Pgp+ CD62L+cells out of live cells ([4]; CD3-CD28-IL2 culture, inhibitor 100 nM, 13 days treatment): 7.96%; % of Pgp+ CD62L+cells out of live cells ([4]; CD3-CD28-IL2 culture, inhibitor 500 nM, 6 days treatment): 13.33%; % of Pgp+ CD62L+cells out of live cells ([4]; CD3-CD28-IL2 culture, inhibitor 500 nM, 13 days treatment): 4.79%; % of Pgp+ CD62L+cells out of live cells ([4]; CD3-CD28-IL2 culture, inhibitor 1 μM, 6 days treatment): 12.05%; % of Pgp+ CD62L+cells out of live cells ([4]; CD3-CD28-IL2 culture, inhibitor 1 μM, 13 days treatment): 5.75%; % of Pgp+ CD62L+cells out of live cells ([4]; CD3-CD28 culture, inhibitor 100 nM, 6 days treatment): 23.35%; % of Pgp+ CD62L+cells out of live cells ([4]; CD3-CD28 culture, inhibitor 100 nM, 13 days treatment): 2.50%; % of Pgp+ CD62L+cells out of live cells ([4]; CD3-CD28 culture, inhibitor 500 nM, 6 days treatment): 24.79%; % of Pgp+ CD62L+cells out of live cells ([4]; CD3-CD28 culture, inhibitor 500 nM, 13 days treatment): 2.12%; % of Pgp+ CD62L+cells out of live cells ([4]; CD3-CD28 culture, inhibitor 1 μM, 6 days treatment): 23.41%; % of Pgp+ CD62L+cells out of live cells ([4]; CD3-CD28 culture, inhibitor 1 μM, 13 days treatment): 2.28%; % of Pgp+ CD62L+cells out of live cells ([4]; CD3-IL2 culture, inhibitor 100 nM, 6 days treatment): 8.62%; % of Pgp+ CD62L+cells out of live cells ([4]; CD3-IL2 culture, inhibitor 100 nM, 13 days treatment): 5.24%; % of Pgp+ CD62L+cells out of live cells ([4]; CD3-IL2 culture, inhibitor 500 nM, 6 days treatment): 9.32%; % of Pgp+ CD62L+cells out of live cells ([4]; CD3-IL2 culture, inhibitor 500 nM, 13 days treatment): 6.82%; % of Pgp+ CD62L+cells out of live cells ([4]; CD3-IL2 culture, inhibitor 1 μM, 6 days treatment): 10.99%; % of Pgp+ CD62L+cells out of live cells ([4]; CD3-IL2 culture, inhibitor 1 μM, 13 days treatment): 5.17%; percentage of Pgp+CD62L+ cells [4, 14]: 13.33%

Q: What does the source list for `Cc1cc(C)c(CNC(=O)c2cc(-c3ccc(N4CCN(C)CC4)nc3)cc3c2c(C)cn3C(C)C)c(=O)[nH]1` [GSK503]?
A: GATE P4 CD8(PerCP)+, CD45RA(FITC)+, CCR7 (PE)+, CD62L(APC) ([1]; 1 μM): 75.24%; GATE P4 CD8(PerCP)+, CD45RA(FITC)+, CCR7 (PE)+, CD62L(APC) ([1]; 2 μM): 75.8%; p2: pgp+ from Live cells ([2]; 1 μM): 47.87; p2: pgp+ from Live cells ([2]; 2 μM): 56.13; GATE P6 CD45RA(FITC)+, CCR7 (PE)+, CD62L(APC) ([3]; 1 μM): 63.54%; GATE P6 CD45RA(FITC)+, CCR7 (PE)+, CD62L(APC) ([3]; 2 μM): 62.62%; p5: double +ve pgp+ and CD62L-APC+ from Live cells ([4]; 1 μM): 15.79; p5: double +ve pgp+ and CD62L-APC+ from Live cells ([4]; 2 μM): 19.99
